In US10646478B2, “Methods for treatment of melanoma” (CHILDREN'S MEDICAL CENTER CORPORATION, priority 2011, dated 2020):

Key:
[1] = system: crestin+ neural crest progenitors; assay: In situ hybridization (ISH) for crestin in zebrafish embryos (chemical screen for suppressors of neural crest development); format: in vivo; conditions: for crestin expression by ISH: zebrafish embryos, 50% epiboly to 24 hpf
Experimental: The screen was performed essentially as previously described^31. In brief, WT embryos were collected, staged and then plated at a density of 10 embryos per well in a […] tissue culture plate in 200 ul of E3 water. At 50% epiboly, 100 ul of a 3× chemical stock was added to each well using a Hamilton liquid handling robot, yielding a final 1× concentration. For the majority of the chemicals in the library, this yielded a concentration of ˜33 uM. The libraries used were the BIOMOL 480, Sigma LOPAC 1280, and selected additional compounds obtained through the Children's Hospital Boston Chemical Screening facility. Compounds known to affect pigmentation in Xenopus were obtained from a screen previously described^32, 33. After treatment, embryos were rinsed in E3 water, pronase treated to remove chorions, washed 4× in E3 and 1× in PBT, and then fixed in 4% PFA for 24 hours. Fixed embryos were changed to 100% methanol 24 h later, and kept until the time of ISH.
Embryos underwent automated ISH using a Biolane HTI robot with a crestin riboprobe as previously described^31. All wells were manually scored by eye, assigning a score within a range of 1 (no crestin staining) to 3 (no change in crestin) to 5 (marked increase in crestin). Note was also taken of chemicals that affected migratory patterns in both A-P and D-V directions, and overall morphology. […] All hits were validated in larger, independent clutches of 100-200 embryos using chemicals obtained from independent suppliers.

[2] = 100 mg daily for 3 days, then 20 mg per day; cited from earlier work
[3] = system: neural crest stem cells (NCSCs) from fetal (E14.5) rat gut; assay: Rat neural crest stem cell assays (self-renewal, colony size, differentiation); format: cell-based
Experimental: Enteric NCSCs from the fetal (E14.5) rat gut were isolated using flow cytometry to select the 1%-2% of cells expressing the highest levels p75 and α4 integrin as previously described^9. Cells were plated at clonal density in two wells/treatment and cultured in self-renewal medium for 8 days in LEF, A771726 or the vehicle (DMSO) followed by differentiation medium+/−LEF, A771726 or DMSO for 6 days. Cultures were fixed in 4% PFA then stained with antibodies against peripherin, GFAP, and SMA to identify neurons (N), glia (G) and myofibroblasts (M) respectively (U=unstained cells). A total of 3 to 4 independent experiments were performed, and differences measured by ANOVA followed by Bonferonni posthoc comparison. Self-renewal medium contains: DMEM-low glucose, 15% Chick Embryo Extract (CEE), Penn/Strep (P/S), 1% N2 supplement, 2% B27 supplement, 110 nM Retinoic Acid, 50 μM 2-mercaptoethanol 20 ng/ml bFGF, and 20 ng/ml IGF-1. Differentiation medium is the same except it contains 1% CEE, 10 ng/ml bFGF and no IGF-1. Differences between groups were calculated using ANOVA followed by posthoc Sheffe.
Dissociated fetal rat gut cells were plated at clonal density in non-adherent conditions in self-renewal medium with LEF, a77 or DMSO for 10 days^10. Three to five primary neurospheres per treatment were individually re-plated in adherent conditions with LEF, a77 or DMSO and after three days were dissociated into a single cell suspension using trypsin and collagenase IV. Dissociated cells from each neurosphere were re-plated in non-adherent conditions without LEF or a77 and after 10 days, the number of secondary neurospheres were counted and compared. To assess the number of multipotent primary and secondary neurospheres, a subset of neurospheres were plated adherently for 8 days in self-renewal medium followed by 6 days in differentiation medium. Cultures were fixed in 4% PFA and stained with antibodies against peripherin, GFAP, and SMA to identify neurons (N), glia (G) and myofibroblasts (M) respectively. A total of 5 independent experiments were analyzed, and the number of multipotent secondary neurospheres on a given day are normalized to the DMSO control wells, and differences calculated by ANOVA.

[4] = system: 5' and 3' transcripts of mitf, dlb, beta-actin; assay: 5'-3' transcriptional elongation assay (qRT-PCR on whole embryos); format: in vivo, zebrafish
Experimental: Primers were designed to the noted genes, situated at the very 5′ end or 3′ end of the gene, situated in the UTR if annotated. qRT-PCR was then performed using SYBR Green, and each primer pair was normalized to an average of the Ct value for the 5′ beta-actin and 3′ beta-actin primers. Fold-change was calculated using the delta-delta Ct method, and all values are expressed relative to the DMSO control, after log 2 transformation. Differences between groups were assessed using t-tests. Primer sequences available upon request.

CYP450 isoenzymes = conditions: parent compound and active metabolite; cited from earlier work
[5] = system: gene expression (123-gene melanoma signature); assay: Microarray analysis of leflunomide treated zebrafish embryos; format: in vivo
[6] = system: Human BRAFV600 (M491) cells; assay: Human BRAFV600 (M491) primary melanoma xenografts in mice; format: in vivo, mouse; conditions: in combination with BRAFi and MEKi
[7] = arthritis patients; cited from earlier work
[8] = system: human melanoma cell lines (A375, Hs.294t, RPMI7951); assay: In vitro melanoma proliferation assay (CellTiterGlo); format: cell-based; conditions: A375, Hs.294t, RPMI7951; CellTiterGlo
Experimental: Human melanoma cell lines (A375, RPMI7951, Hs.294T, MAMLE-3M) were obtained from the American Type Culture Collection. The 8988 cell line was provided by Alec Kimmelman at Dana Farber, and the PANC1 and MDA-231-MB lines were provided by Rania Hartouche at Harvard. Cells were cultured in DMEM/10% FCS at 37 C, 5% CO2. For proliferation assays, 96-well clear bottom plates were used to plate cells at a density of 5,000 cells/well (RPMI7951 and A375) or 10,000 cells/well (MAMLE-3M-3M and Hs.294T) in 100 ul containing indicated concentrations of A771726 or PLX4720 or DMSO. All conditions were tested in triplicate. Media was changed at day 2, and proliferation rate was measured at day 4 using the CellTiterGlo assay kit (Promega). All values are expressed are the % of luciferase relative to the DMSO control well. Differences between groups were statistically analyzed using a generalized linear ANOVA model taking into account factors of PLX4720, A771726 and dose. IC50's were calculated using a log-logistic model.

[9] = 6.5 uM, 24 hpf, relative to DMSO

Cc1oncc1C(=O)Nc1ccc(C(F)(F)F)cc1 [leflunomide]
ability to inhibit neural crest development (rank order of effect) ([1]; Example III, different concentrations, crestin ISH): approximately the same as compounds 5 and 6
crestin expression by ISH [1]: reduction in expression of the neural crest
crestin expression by ISH ([1]; listed as Leflunomide): phenocopied NSC210627
steady-state concentration [2]: approximately 60 mcg/mL
colony size reduced compared to controls [3]: 18%
differentiation or survival of specific progeny [3]: no effect on differentiation or survival of specific progeny
number of self-renewing NCSCs from primary stem cell colonies [3]: 27+/−5.35 % of controls
dlb 3′ transcript abundance [4, 9]: 0.74+/−0.07 fold
dlb 5′ transcript abundance [4, 9]: 1.13+/−0.14 fold
mitf 3′ transcript abundance [4, 9]: 0.39+/−0.07 fold
mitf 5′ transcript abundance [4, 9]: 3.75+/−1.19 fold
beta-actin 3′ transcript abundance ([4]; control gene, 6.5 uM, 24 hpf): 0.99+/−0.06 fold
beta-actin 5′ transcript abundance ([4]; control gene, 6.5 uM, 24 hpf): 1.03+/−0.07 fold
3′ transcription of mitf, pvalb2, her4.2 and dlb ([4]; leflunomide vs. DMSO): significant decrease in 3′ transcription
metabolism by CYP450 isoenzymes (CYP450 isoenzymes): Neither the parent compound nor the active metabolite is metabolized by CYP450 isoenzymes
number of genes upregulated ([5]; 6.5 uM, 50% epiboly to 24 hpf, 2-fold): 60 genes
genes upregulated in the 123-gene melanoma signature that are downregulated ([5]; leflunomide treated embryos): 49%
tumor growth [6]: significantly impair tumor growth
treatment-related adverse event more prevalent than with placebo [7]: elevation of liver transaminase
proliferation of human melanoma cell lines [8]: dose-dependent decrease in melanoma proliferation
